# Results reported in PMC10436550, “Subacute toxicity evaluations of LPM3480392 in rats, a full µ-opioid receptor biased agonist” (Frontiers in Pharmacology, 2023).
# Tested on: Sprague Dawley (SD) rats
# Test: Hematology, 4-week subacute toxicity study
# [1] = female rats, 0.6 mg/kg/day, End of dosing phase
# [2] = female rats, 0.6 mg/kg/day, End of recovery phase
# [3] = female rats, 1.2 mg/kg/day, End of dosing phase
# [4] = female rats, 1.2 mg/kg/day, End of recovery phase
# [5] = female rats, 2.4 mg/kg/day, End of dosing phase
# [6] = female rats, 2.4 mg/kg/day, End of recovery phase
# [7] = female rats, end of dosing phase
# [8] = male rats, 0.6 mg/kg/day, End of dosing phase
# [9] = male rats, 0.6 mg/kg/day, End of recovery phase
# [10] = male rats, 1.2 mg/kg/day, End of dosing phase
# [11] = male rats, 1.2 mg/kg/day, End of recovery phase
# [12] = male rats, 2.4 mg/kg/day, End of dosing phase
# [13] = male rats, 2.4 mg/kg/day, End of recovery phase
structure (smiles),measurement,setting,value
Fc1ccc([C@]2(CCNCc3cccc(Cl)c3)CCO[C@]3(CCOC3)C2)nc1 [LPM3480392],LYM,[1],4.17 ± 0.90 10^9/L
same,LYM%,[1],86.1 ± 5.8%
same,MCV,[1],58.1 ± 1.5 fL
same,MONO,[1],0.05 ± 0.02 10^9/L
same,MONO%,[1],1.1 ± 0.4 %
same,NEU,[1],0.51 ± 0.26 10^9/L
same,NEU%,[1],10.6 ± 5.5%
same,PLT,[1],1072 ± 103 10^9/L
same,RBC,[1],6.90 ± 0.35 10^12/L
same,WBC,[1],4.84 ± 0.93 10^9/L
same,LYM,[2],3.46 ± 0.53 10^9/L
same,LYM%,[2],85.8 ± 4.4 %
same,MCV,[2],56.4 ± 1.2 fL
same,MONO,[2],0.04 ± 0.02 10^9/L
same,MONO%,[2],1.1 ± 0.4 %
same,NEU,[2],0.42 ± 0.17^* 10^9/L
same,NEU%,[2],10.6 ± 4.8 %
same,PLT,[2],975 ± 144 10^9/L
same,RBC,[2],7.56 ± 0.22 10^12/L
same,WBC,[2],4.03 ± 0.57 10^9/L
same,LYM,[3],4.21 ± 1.29 10^9/L
same,LYM%,[3],85.7 ± 7.2%
same,MCV,[3],58.7 ± 2.1 fL
same,MONO,[3],0.05 ± 0.02 10^9/L
same,MONO%,[3],0.9 ± 0.3 %
same,NEU,[3],0.50 ± 0.24 10^9/L
same,NEU%,[3],11.1 ± 7.2%
same,PLT,[3],1064 ± 104 10^9/L
same,RBC,[3],6.59 ± 0.26^* 10^12/L
same,WBC,[3],4.87 ± 1.28 10^9/L
same,LYM,[4],2.95 ± 0.75 10^9/L
same,LYM%,[4],85.9 ± 3.0 %
same,MCV,[4],56.6 ± 1.8 fL
same,MONO,[4],0.04 ± 0.01 10^9/L
same,MONO%,[4],1.2 ± 0.4 %
same,NEU,[4],0.35 ± 0.08^* 10^9/L
same,NEU%,[4],10.6 ± 2.5 %
same,PLT,[4],975 ± 42 10^9/L
same,RBC,[4],7.44 ± 0.33 10^12/L
same,WBC,[4],3.42 ± 0.78 10^9/L
same,LYM,[5],2.53 ± 0.59 10^9/L
same,LYM%,[5],81.1 ± 5.3%
same,MCV,[5],58.1 ± 1.9 fL
same,MONO,[5],0.03 ± 0.02^* 10^9/L
same,MONO%,[5],1.0 ± 0.3 %
same,NEU,[5],0.51 ± 0.29 10^9/L
same,NEU%,[5],15.4 ± 4.6%
same,PLT,[5],946 ± 108^* 10^9/L
same,RBC,[5],6.57 ± 0.30^* 10^12/L
same,WBC,[5],3.15 ± 0.87 10^9/L
same,LYM,[6],3.02 ± 0.62 10^9/L
same,LYM%,[6],83.7 ± 3.4 %
same,MCV,[6],56.8 ± 0.8 fL
same,MONO,[6],0.04 ± 0.01 10^9/L
same,MONO%,[6],1.2 ± 0.3 %
same,NEU,[6],0.46 ± 0.09^* 10^9/L
same,NEU%,[6],12.8 ± 2.8 %
same,PLT,[6],998 ± 45 10^9/L
same,RBC,[6],7.45 ± 0.17 10^12/L
same,WBC,[6],3.60 ± 0.67 10^9/L
same,Magnitude of change of MCV,[7],less than 5%
same,Magnitude of change of PLT,[7],< 15%
same,Magnitude of change of RBC,[7],< 6%
same,EOS,[8],0.042 ± 0.013 10^9/L
same,EOS%,[8],0.90 ± 0.42%
same,MONO,[8],0.07 ± 0.03 10^9/L
same,MONO%,[8],1.3 ± 0.6%
same,RBC,[8],7.05 ± 0.32 10^12/L
same,RET,[8],0.300 ± 0.051 10^12/L
same,RET %,[8],4.26 ± 0.77%
same,WBC,[8],5.19 ± 1.38 10^9/L
same,EOS,[9],0.046 ± 0.018 10^9/L
same,EOS%,[9],1.14 ± 0.38%
same,MONO,[9],0.04 ± 0.02 10^9/L
same,MONO%,[9],1.0 ± 0.4%
same,RBC,[9],7.96 ± 0.24 10^12/L
same,RET,[9],0.144 ± 0.021 10^12/L
same,RET %,[9],1.81 ± 0.30%
same,WBC,[9],4.04 ± 1.12 10^9/L
same,EOS,[10],0.035 ± 0.016^* 10^9/L
same,EOS%,[10],0.77 ± 0.39%
same,MONO,[10],0.05 ± 0.02 10^9/L
same,MONO%,[10],1.1 ± 0.3%
same,RBC,[10],7.06 ± 0.32 10^12/L
same,RET,[10],0.331 ± 0.062^* 10^12/L
same,RET %,[10],4.70 ± 0.92 %
same,WBC,[10],4.56 ± 0.55 10^9/L
same,EOS,[11],0.042 ± 0.013 10^9/L
same,EOS%,[11],0.90 ± 0.12%
same,MONO,[11],0.04 ± 0.02 10^9/L
same,MONO%,[11],0.9 ± 0.3%
same,RBC,[11],7.99 ± 0.29 10^12/L
same,RET,[11],0.132 ± 0.017 10^12/L
same,RET %,[11],1.65 ± 0.21%
same,WBC,[11],4.50 ± 1.16 10^9/L
same,EOS,[12],0.022 ± 0.014^* 10^9/L
same,EOS%,[12],0.49 ± 0.29 %
same,MONO,[12],0.04 ± 0.02^* 10^9/L
same,MONO%,[12],0.9 ± 0.4%
same,RBC,[12],7.05 ± 0.37 10^12/L
same,RET,[12],0.387 ± 0.053^* 10^12/L
same,RET %,[12],5.51 ± 0.83 %
same,WBC,[12],4.24 ± 0.98 10^9/L
same,EOS,[13],0.032 ± 0.011 10^9/L
same,EOS%,[13],0.66 ± 0.21%
same,MONO,[13],0.05 ± 0.02 10^9/L
same,MONO%,[13],1.1 ± 0.3%
same,RBC,[13],7.62 ± 0.37 10^12/L
same,RET,[13],0.157 ± 0.008 10^12/L
same,RET %,[13],2.07 ± 0.11 %
same,WBC,[13],5.02 ± 0.40 10^9/L
